Reference: patent US20230124862A1, “BISMUTH THIOL COMPOUNDS AND COMPOSITIONS AND METHODS OF TREATING MICROBIAL CO-INFECTIONS” (Microbion Corporation, priority 2020, published 2023)
≈ marks a conversion by molar mass, not a printed value. Like-named read-outs stand apart in the source and are kept apart here. Marks after values point to notes of the source that are not given here.

Columns and labels:
S. aureus ATCC 29213 = test: MIC control strain; conditions: QC organism, Example 13
Candida krusei = test: Antifungal broth microdilution (Example 13); format: cell-based; conditions: for MIC: Pichia kudriavzevii
Candida albicans = test: Antifungal broth microdilution (Example 13); format: cell-based; conditions: Candida albicans, 24 h, read-out: MIC0, C. albicans MMX 7445, FLU-R, VORI-R, complete inhibition
[1] = system: MucilAir fully differentiated human airway epithelium
[2] = format: in vivo, F344 rats; conditions: rat, inhalation
Experimental: Inhalation Exposure: The initial exposure of BisEDT (Bismuth-1,2-ethanedithiol) was formulated as a […] at 100 mg/mL in suspension in 0.5% Tween 80, 10 mM sodium phosphate, pH 7.4, in NaCl (adjusted to approximately 300 mOsm). Aerosols were generated with a commercial compressed air jet nebulizer, Pad LC Plus, operated with an inlet pressure of 20 psi. The aerosols were transitioned into a rodent nose-only inhalation exposure system. The exposure system was operated with an inlet air flow of −5.2 L/min and an exhaust air flow of −5 L/min.

[3] = system: Gram-negative organisms (P. aeruginosa, E. coli, A. baumannii, H. influenzae); test: Broth microdilution MIC with pulmonary surfactant (Survanta); format: cell-based; conditions: evaluated organisms, 1-10% Survanta
in vivo [4] = conditions: rat, rats, lung-deposited dose, read-out: acute no observed adverse effect level (NOAEL)
Experimental: Based on rat tox and PK data to date, an acute no observed adverse effect level (NOAEL) in rats is approximately 100 μg/kg lung-deposited dose. The NOAEL was established through clinical observation during and after treatment, gross necropsy, lung lavage analysis, clinical chemistry, and hematology results. […] Furthermore, lung surface fluid concentrations are approximately 30-fold higher than the corresponding total lung tissue concentrations for BisEDT which appears to persist primarily on the lumen.

in vivo [5] = test: in vivo; set-up: species or system F344 rats; conditions: both sexes; for concentration at 30 hr: sac time 30 hr
Experimental: Detailed gross necropsies were performed on all animals (found dead, moribund, or scheduled necropsy) and consisted of a complete external and internal examination including body orifices and cranial, thoracic, and abdominal organs and tissues. All gross findings will be recorded in descriptive terms. […] Lungs collected and weighed.

[6] = humans
CYP = conditions: liver microsome (CYP) and hepatocyte
physchem = format: physicochemical
Klebsiella pneumoniae [7] = conditions: K. pneumoniae ATCC BAA-1705; CLSI established QC range; cited from earlier work
Acinetobacter baumannii = test: Broth microdilution MIC (Example 12); format: cell-based
Escherichia coli = test: Broth microdilution MIC (Example 12); format: cell-based
Klebsiella pneumoniae [8] = test: Broth microdilution MIC (Example 12); format: cell-based

With `CC(S)C(C)S.[Bi]` (stereo not drawn) [BisBDT, bismuth-2,3-butanedithiol] the “MIC 24 hr” value (S. aureus ATCC 29213) was 1^a, the MIC 24 hr (Candida krusei; C. krusei ATCC 6258, first of two values x/y (footnote b not given, matches MIC2 of Table 107)) was 0.5 µg/mL and the MIC 24 hr (Candida krusei; C. krusei ATCC 6258, second of two values x/y (footnote b not given, matches MIC0 of Table 107)) was 1 µg/mL. For the same compound, the MIC 48 hr (Candida krusei; C. krusei ATCC 6258, 48 hr, first of two values x/y (footnote b not given, presumably MIC2)) was 1 µg/mL, the MIC (Candida krusei; C. krusei MMX 7125, Susceptible, 50% inhibition, read-out: MIC2) was 0.5 µg/mL and the MIC (Candida krusei; C. krusei MMX 7125, Susceptible, complete inhibition, read-out: MIC0) was 1 µg/mL. The MIC (Candida krusei; C. krusei MMX 7141, Susceptible, 50% inhibition, read-out: MIC2) was 1 µg/mL, the MIC (Candida krusei; C. krusei MMX 7141, Susceptible, complete inhibition, read-out: MIC0) was 2 µg/mL and the MIC (Candida krusei; C. krusei MMX 7155, Susceptible, 50% inhibition, read-out: MIC2) was 0.5 µg/mL. For the same compound, the MIC (Candida krusei; C. krusei MMX 7155, Susceptible, complete inhibition, read-out: MIC0) was 1 µg/mL, the MIC (Candida krusei; C. krusei MMX 7563, Susceptible, 50% inhibition, read-out: MIC2) was 0.5 µg/mL and the MIC (Candida krusei; C. krusei MMX 7563, Susceptible, complete inhibition, read-out: MIC0) was 1 µg/mL. The MIC (Candida krusei; C. krusei MMX 9878, MICA-I, VORI-I, 50% inhibition, read-out: MIC2) was 0.5 µg/mL, the MIC (Candida krusei; C. krusei MMX 9878, MICA-I, VORI-I, complete inhibition, read-out: MIC0) was 1 µg/mL and the MIC (Candida krusei; […], complete inhibition, read-out: MIC0) was 1 µg/mL. For the same compound, the MIC (Candida krusei; read-out: MIC2) was 0.5 µg/mL and the MIC (Candida albicans) was 2 µg/mL.

For `C1C[S][Bi]([S]CC[S][Bi]2[S]CC[S]2)[S]1` [BisEDT, Bismuth-1,2-ethanedithiol], the Morphology after exposure ([1]; BisEDT in solution, all tested concentrations and time points) was “No morphology changes were observed”, the Morphology after exposure ([1]; solid in dextran, 3.33 μg/cm^2, 24 and 48 h) was “Cells were rounded and opaque at the periphery of inserts” and the Morphology after exposure ([1]; solid in dextran, 0.033 and 0.33 μg/cm^2) was “No morphological modifications were observed”. The Morphology after exposure ([1]; solid, 1 μg/cm^2, 1 hour and 8 hour) was “no important morphological changes were observed”, the Morphology after exposure ([1]; solid, 1 μg/cm^2, 24 h) was “the epithelial cells on 2 inserts out of 3 were dead” and the Morphology after exposure ([1]; solid, 1 μg/cm^2, 48 h) was “the epithelial cells on all 3 inserts were dead”. The “Mean BisEDT Conc, whole blood” value ([2]; dose 47 μg/kg, 8 hr) was 114 ng/mL, the “Mean BisEDT Conc, whole blood” value ([2]; dose 47 μg/kg, 12 hr) was 98 ng/mL and the “Mean BisEDT Conc, whole blood” value ([2]; dose 47 μg/kg, 24 hr) was 282 ng/mL. The “Mean BisEDT Conc, whole blood” value ([2]; dose 47 μg/kg, 30 hr) was 373 ng/mL, the “Mean BisEDT Conc, whole blood” value ([2]; dose 124 μg/kg, 8 hr) was 247 ng/mL and the “Mean BisEDT Conc, whole blood” value ([2]; dose 124 μg/kg, 12 hr) was 187 ng/mL. For the same compound, the “Mean BisEDT Conc, whole blood” value ([2]; dose 124 μg/kg, 24 hr) was 571 ng/mL, the “Mean BisEDT Conc, whole blood” value ([2]; dose 124 μg/kg, 30 hr) was 668 ng/mL and the “Mean BisEDT Conc, whole blood” value ([2]; dose 400 μg/kg, 8 hr) was 1701 ng/mL. The “Mean BisEDT Conc, whole blood” value ([2]; dose 400 μg/kg, 12 hr) was 1252 ng/mL, the “Mean BisEDT Conc, whole blood” value ([2]; dose 400 μg/kg, 24 hr) was 2700 ng/mL and the “Mean BisEDT Conc, whole blood” value ([2]; dose 400 μg/kg, 30 hr) was 2738 ng/mL. The “Mean BisEDT Conc, whole blood” value ([2]; dose 3000 μg/kg, 1 hr) was 485 ng/mL, the “Mean BisEDT Conc, whole blood” value ([2]; dose 3000 μg/kg, 2 hr) was 2504 ng/mL and the “Mean BisEDT Conc, whole blood” value ([2]; dose 3000 μg/kg, 8 hr) was 6570 ng/mL. The “Mean BisEDT Conc, whole blood” value ([2]; dose 3000 μg/kg, 24 hr) was 20525 ng/mL, the “effect of Survanta addition on MIC values” [3] was “largely unaffected” and the NOAEL (in vivo [4]) was about 0.1 mg/kg. For the same compound, the concentration at 30 hr (in vivo [5]; F344, in vivo, rat, inhalation, dose 47 μg/kg, read-out: Mean BisEDT Conc, lung at sacrifice) was 4.8 ng/g, the concentration at 30 hr (in vivo [5]; F344, in vivo, rat, inhalation, dose 124 μg/kg, read-out: Mean BisEDT Conc, lung at sacrifice) was 5.9 ng/g and the concentration at 30 hr (in vivo [5]; F344, in vivo, rat, inhalation, dose 400 μg/kg, read-out: Mean BisEDT Conc, lung at sacrifice) was 12.1 ng/g. The concentration at 24 hr (in vivo [5]; F344, in vivo, rat, inhalation, dose 3000 μg/kg, sac time 24 hr, read-out: Mean BisEDT Conc, lung at sacrifice) was 82.3 ng/g, the Kp at 24 hours (in vivo [5]; F344, rat, in vivo, rats, 24 hours after dosing, read-out: lung tissue drug levels higher than blood levels) was 4 to 5 and the well-tolerated topical concentration ([6]; 6 hours) was “up to 2500 μg/cm^2”. For the same compound, the tolerated topical concentration ([6]; over 21 days continuous exposure, normal and abraded skin) was “up to 75 μg/cm^2”, the “effect on liver cell metabolism (inhibition or induction of standard substrates)” value (CYP) was “no significant effect” and the solubility (physchem) was under 5 µg/mL.

In the case of `C[C@@H](O)[C@H]1C(=O)N2C(C(=O)O)=C(S[C@@H]3CN[C@H](C(=O)N(C)C)C3)[C@H](C)[C@H]12` [MEM], the “QC range of MIC” value (Klebsiella pneumoniae [7]) is given as “(8-64) μg/mL”, the MIC (Acinetobacter baumannii; A. baumannii CDC 273, ESBL/OXA) is given as over 8 µg/mL and the MIC (Acinetobacter baumannii; A. baumannii CDC 274, ESBL/OXA) is given as over 8 µg/mL. The MIC (Acinetobacter baumannii; A. baumannii CDC 275, ESBL/OXA) was over 8 µg/mL, the MIC (Acinetobacter baumannii; A. baumannii CDC 277, ESBL/OXA) was over 8 µg/mL and the MIC (Acinetobacter baumannii; A. baumannii CDC 284, ESBL/OXA) was over 8 µg/mL. It also gave an MIC (Acinetobacter baumannii; A. baumannii CDC 307, OXA) of 8 µg/mL (≈ 20.9 µM), an MIC (Acinetobacter baumannii; A. baumannii CDC 308, ESBL/OXA) of 8 µg/mL (≈ 20.9 µM) and an MIC (Acinetobacter baumannii; A. baumannii CDC 311, OXA) of over 8 µg/mL. The MIC (Acinetobacter baumannii; A. baumannii CDC 312, OXA) was 4 µg/mL (≈ 10.4 µM), the MIC (Acinetobacter baumannii; A. baumannii CDC 313, ESBL/OXA) was over 8 µg/mL and the MIC (Acinetobacter baumannii; A. baumannii NCTC 13304, OXA) was over 8 µg/mL. For the same compound, the MIC (Escherichia coli; E. coli ATCC 25922, ATCC QC organism (Table 102)) was at most 0.008 µg/mL, the MIC (Escherichia coli; E. coli ATCC 35218, ATCC QC organism (Table 102)) was at most 0.008 µg/mL and the MIC (Escherichia coli; E. coli ATCC 35218, ESBL) was at most 0.008 µg/mL. The MIC (Escherichia coli; E. coli ATCC BAA-2471, NDM) was over 8 µg/mL, the MIC (Escherichia coli; E. coli CDC 114, ESBL/KPC) was 2 µg/mL (≈ 5.22 µM) and the MIC (Escherichia coli; E. coli CDC 118, ESBL/NDM) was 0.06 µg/mL (≈ 0.156 µM). For the same compound, the MIC (Escherichia coli; E. coli CDC 435, NDM) was over 8 µg/mL, the MIC (Escherichia coli; E. coli CDC 451, KPC) was 1 µg/mL (≈ 2.61 µM) and the MIC (Escherichia coli; E. coli CDC 503, ESBL/NDM) was 8 µg/mL (≈ 20.9 µM). It also gave an MIC (Escherichia coli; E. coli MMX 5745, KPC) of 2 µg/mL (≈ 5.22 µM), an MIC (Escherichia coli; E. coli MMX 5755, ESBL) of 0.015 µg/mL (≈ 0.0391 µM) and an MIC (Escherichia coli; E. coli MMX 5756, ESBL) of at most 0.008 µg/mL. It also gave an MIC (Escherichia coli; E. coli MMX 5758, ESBL) of at most 0.008 µg/mL, an MIC (Klebsiella pneumoniae [8]; K. pneumoniae ATCC BAA-1705, ATCC QC organism (Table 102)) of 8 µg/mL (≈ 20.9 µM) and an MIC (Klebsiella pneumoniae [8]; K. pneumoniae ATCC BAA-1705, ESBL/KPC) of 8 µg/mL (≈ 20.9 µM). It also gave an MIC (Klebsiella pneumoniae [8]; K. pneumoniae CDC 112, KPC) of over 8 µg/mL, an MIC (Klebsiella pneumoniae [8]; K. pneumoniae CDC 113, ESBL/KPC) of over 8 µg/mL and an MIC (Klebsiella pneumoniae [8]; K. pneumoniae CDC 115, ESBL/KPC) of over 8 µg/mL. For the same compound, the MIC (Klebsiella pneumoniae [8]; K. pneumoniae CDC 120, ESBL/KPC) was over 8 µg/mL, the MIC (Klebsiella pneumoniae [8]; K. pneumoniae CDC 126, ESBL/KPC) was 4 µg/mL (≈ 10.4 µM) and the MIC (Klebsiella pneumoniae [8]; K. pneumoniae CDC 129, ESBL/KPC) was 8 µg/mL (≈ 20.9 µM). It also gave an MIC (Klebsiella pneumoniae [8]; K. pneumoniae CDC 135, ESBL/VIM) of 1 µg/mL (≈ 2.61 µM), an MIC (Klebsiella pneumoniae [8]; K. pneumoniae CDC 138, ESBL/NDM) of over 8 µg/mL and an MIC (Klebsiella pneumoniae [8]; K. pneumoniae CDC 158, ESBL/NDM/OXA) of over 8 µg/mL. The MIC (Klebsiella pneumoniae [8]; K. pneumoniae MMX 9029, ESBL) was 0.015 µg/mL (≈ 0.0391 µM).
